Data: US20100113453A1, “Sublingual Formulations of D-Cycloserine and Methods of Using Same” (priority 2007, published 2010)
Read-outs that look alike come from different tables or passages of the source.

What was measured:
[1] = cited from earlier work
[2] = Absorption into the blood following sublingual versus oral administration of D-cycloserine; type: in vivo, Sprague-Dawley rats; settings: rat; for concentration at 0 min / concentration at 10 min / concentration at 20 min / concentration at 40 min / concentration at 80 min: male, Sprague-Dawley, plasma, 15 mg/kg, read-out: DCS plasma level; for concentration at 0 min: 0 minutes (baseline before DCS administration); for concentration at 10 min: 10 minutes elapsed; for concentration at 20 min: 20 minutes elapsed; for concentration at 40 min: 40 minutes elapsed; for concentration at 80 min: 80 minutes elapsed
Procedure: Subjects: 18 male, Sprague-Dawley rats (Charles River, Raleigh N.C.).
Procedure: The rats were implanted with intravenous catheters using the methods of Thrivikraman et al., (“Jugular vein catheterization for repeated blood sampling in the unrestrained conscious rat” (2002) Brain Res. Brain Res. Protoc., 10(2), p. 84-94). Following two days of recovery, rats were lightly anesthetized with isofluorothane and given DCS either sublingually (n=10) or orally (n=8). D-cycloserine was dissolved in saline and given at a volume of 75 μL/rat sublingually and (after dilution by a factor of two) 150 μL/rat when administered orally (concentration of 15 mg/kg). Aliquots of 0.5-1.0 mL blood samples were collected: at baseline before DCS administration; and subsequently at 10, 20, 40, and 80 minutes after DCS administration. Blood samples were injected into pre-heparinized tubes and immediately placed on ice. Because the assays required at least 1 mL of plasma, samples from two rats given the same treatment and sampled at the same time were combined so that there were 25 samples from the sublingual group (10 rats/2×5 samples) and 20 samples from the oral group (8 rats/2×5 samples). Plasma was separated by centrifugation at 770 g for 10 minutes, placed in polypropylene tubes, frozen at −80° C., then shipped on dry ice to an outside laboratory to assay DCS levels. […] At the dosages studied, the resulting DCS plasma levels were near the lower detection limits of the assay.

[3] = sub-antimicrobial dose, cited from earlier work
[4] = tested on: Mycobacterium tuberculosis strains; settings: typical Mycobacterium tuberculosis strains; cited from earlier work
[5] = typical doses for the treatment of tuberculosis (500-1000 mg/day), chronic dosing; cited from earlier work

**Q.** For NC1CONC1=O (stereo not drawn) [DCS, 4-amino-1,2-oxazolidin-3-one], which “serum concentrations generally maintained” value ([1]; dose of 500 mg/day, chronic treatment) is on record?
**A.** 25000 to 30000 ng/mL

**Q.** What about the half-life ([1]; known oral tablets, primarily renal excretion) of the same molecule?
**A.** 10 h

**Q.** And the “time of peak serum concentrations after dosing” value ([1]; known oral tablets)?
**A.** 3 to 8 h

**Q.** What about the concentration at 0 min ([2]; other: sublingual, sublingual) of the same molecule?
**A.** 0 ng/mL

**Q.** What about the concentration at 10 min ([2]; other: sublingual, sublingual) of the same molecule?
**A.** 900 ng/mL

**Q.** What about the concentration at 20 min ([2]; other: sublingual, sublingual) of the same molecule?
**A.** 1600 ng/mL

**Q.** What about the concentration at 40 min ([2]; other: sublingual, sublingual) of the same molecule?
**A.** 4700 ng/mL

**Q.** And the concentration at 80 min ([2]; other: sublingual, sublingual)?
**A.** 5200 ng/mL

**Q.** What about the concentration at 0 min ([2]; oral) of the same molecule?
**A.** 0 ng/mL

**Q.** What about the concentration at 10 min ([2]; oral) of the same molecule?
**A.** 1600 ng/mL

**Q.** And the concentration at 20 min ([2]; oral)?
**A.** 2300 ng/mL

**Q.** And the concentration at 40 min ([2]; oral)?
**A.** 5400 ng/mL

**Q.** What about the concentration at 80 min ([2]; oral) of the same molecule?
**A.** 5400 ng/mL

**Q.** What about the “blood plasma concentrations after sublingual administration relative to oral administration” value ([2]; sublingual versus oral) of the same molecule?
**A.** comparable to those achieved by oral administration

**Q.** And the peak serum concentrations ([3]; child subject, less than or equal to 2 mg/kg)?
**A.** less than or equal to 5 μg/mL

**Q.** And the peak serum concentrations ([3]; less than or equal to 2 mg/kg and greater than about 0.2 mg/kg)?
**A.** less than or equal to 5 μg/mL

**Q.** And the “minimum inhibitory concentrations (MIC) in vitro” value [4]?
**A.** 6 to 25 µg/mL

**Q.** And the “side effects in treated subjects” value [5]?
**A.** significant neurological side effects
